# Results published in patent publication US12285407B2, “Bis-indolylmethane derivatives and uses thereof” (The University of The West Indies, priority 2018, dated 2025).
# Read-outs that look alike come from different tables or passages of the source.
# Experiments:
# [1] = test system: Streptococcus pneumoniae; experiment: Adjuvant broth microdilution (antibiotic MIC with SP-BIM at 50 μg/mL); format: cell-based; settings: Streptococcus pneumoniae; Streptococcus pneumonia; antibiotic alone; Table 5; read-out: MIC of antibiotic, No compound
# [2] = test system: Escherichia coli; experiment: microbe, parasite or virus in culture; format: cell-based; settings: antibiotic alone, Table 6, read-out: MIC of antibiotic, No compound
# [3] = test system: Staphylococcus aureus; experiment: Checkerboard synergy (FICI) of antibiotics with SP-BIM; format: cell-based; settings: Staphylococcus aureus, Staphylococcus aureus; for MIC: 24 h, antibiotic alone, read-out: MIC antibiotic only
# [4] = test system: Streptococcus pneumoniae; experiment: as above; format: cell-based; settings: for MIC: 24 h, antibiotic alone, read-out: MIC antibiotic only
# [5] = test system: Bacillus cereus; experiment: as above; format: cell-based; settings: for MIC: 24 h, antibiotic alone, read-out: MIC antibiotic only
# [6] = test system: Klebsiella pneumoniae; experiment: as above; format: cell-based; settings: for MIC: 24 h, antibiotic alone, read-out: MIC antibiotic only
# [7] = test system: clinical strains of MRSA; experiment: Kirby Bauer disc diffusion susceptibility profile; format: cell-based, Staphylococcus aureus; settings: for Zone of clearance: 35° C., 24 hours, average n=3; for Interpretive standard (resistant/susceptible): zones vs EUCAST breakpoints (Table 30)
# [8] = test system: clinical strains of Enterococcus faecium; experiment: Kirby Bauer disc diffusion susceptibility profile; format: cell-based; settings: for Zone of clearance: 35° C., 24 hours, average n=3; for Interpretive standard (resistant/susceptible): zones vs EUCAST breakpoints (Table 31)
# [9] = test system: clinical antibiotic resistant isolates of Enterococcus faecium; experiment: Checkerboard resistance breaking by SP-BIM 13; format: cell-based; settings: for FIC compound: SP-BIM 13 with the labelled antibiotic; for Interpretation / Σ FIC: antibiotic + SP-BIM 13; for MIC of antibiotic only: antibiotic alone; for FIC antibiotic: combination with SP-BIM 13; for MIC of antibiotic in combination: with SP-BIM 13 at rescue concentration
# [10] = test system: Escherichia coli; experiment: Checkerboard synergy (FICI) of antibiotics with SP-BIM; set-up: MIC SP-BIM 13 only / MIC in combination: Antibiotic: unit not given beside the values; settings: for MIC: 24 h
# [11] = test system: Candida albicans; experiment: as above; set-up: MIC SP-BIM 13 only / MIC in combination: Antibiotic / MIC antibiotic only: unit not given beside the values
# [12] = SP-BIM 9 in combination with the labelled antibiotic
# [13] = SP-BIM 13 in combination with the labelled antibiotic
# [14] = antibiotic in combination with SP-BIM 9
# [15] = antibiotic in combination with SP-BIM 13
# [16] = Streptococcus pneumonia (title: Streptococcus pyogenes), antibiotic + SP-BIM 9
# [17] = Streptococcus pneumoniae, antibiotic + SP-BIM 13
# [18] = MIC of the antibiotic in combination with SP-BIM 13
compound,measurement,setting,value
"CC1(C)S[C@@H]2[C@H](NC(=O)[C@H](N)c3ccccc3)C(=O)N2[C@H]1C(=O)O [Ampicillin, ampicillin]",MIC,[1],0.5 µg/mL
same,MIC,[2],63 µg/mL
same,MIC,[3]; SP-BIM 9 checkerboard,0.5 µg/mL
same,MIC,[3]; SP-BIM 13 checkerboard,0.5 µg/mL
same,FIC of SP-BIM 9,[3]; [12],0.50
same,FIC of SP-BIM 13,[3]; [13],0.0
same,Interpretation,[3]; antibiotic + SP-BIM 9,Additive (Additive: FICI>0.5-1.0)
same,Σ FIC,[3]; antibiotic + SP-BIM 9,<0.90
same,Interpretation,[3]; antibiotic + SP-BIM 13,Additive (Additive: FICI>0.5-1.0)
same,Σ FIC,[3]; antibiotic + SP-BIM 13,1.0
same,"MIC in combination, Antibiotic",[3]; [14],0.2 µg/mL
same,"MIC in combination, Antibiotic",[3]; [15],0.5 µg/mL
same,FIC of antibiotic,[3]; in combination with SP-BIM 9,0.40
same,FIC of antibiotic,[3]; in combination with SP-BIM 13,1.0
same,FIC of SP-BIM 9,"[4]; Streptococcus pneumonia (title: Streptococcus pyogenes), SP-BIM 9 in combination with the labelled antibiotic",0.06
same,Interpretation,[4]; [16],Synergy (Synergy: FICI≤0.5)
same,Σ FIC,[4]; [16],<0.06
same,"MIC in combination, Antibiotic","[4]; Streptococcus pneumonia (title: Streptococcus pyogenes), antibiotic in combination with SP-BIM 9",0.1 µg/mL
same,FIC of antibiotic,"[4]; Streptococcus pneumonia (title: Streptococcus pyogenes), in combination with SP-BIM 9",0.00
same,MIC,"[4]; Streptococcus pneumoniae, Streptococcus pneumonia (title: Streptococcus pyogenes), SP-BIM 9 checkerboard",> 250 µg/mL
same,MIC,"[4]; Streptococcus pneumoniae, Streptococcus pneumoniae, SP-BIM 13 checkerboard",250 µg/mL
same,FIC of SP-BIM 13,"[4]; Streptococcus pneumoniae, SP-BIM 13 in combination with the labelled antibiotic",0.3
same,Interpretation,[4]; [17],Synergy (Synergy: FICI≤0.5)
same,Σ FIC,[4]; [17],<0.3
same,"MIC in combination, Antibiotic","[4]; Streptococcus pneumoniae, antibiotic in combination with SP-BIM 13",2 µg/mL
same,FIC of antibiotic,"[4]; Streptococcus pneumoniae, in combination with SP-BIM 13",0.0
same,MIC,[5]; SP-BIM 9 checkerboard,8 µg/mL
same,MIC,[5]; SP-BIM 13 checkerboard,8 µg/mL
same,FIC of SP-BIM 13,[5]; [13],0.3
same,Interpretation,[5]; antibiotic + SP-BIM 13,Synergy (Synergy: FICI≤0.5)
same,Σ FIC,[5]; antibiotic + SP-BIM 13,0.3
same,"MIC in combination, Antibiotic",[5]; [15],0.5 µg/mL
same,FIC of antibiotic,[5]; in combination with SP-BIM 13,0.06
same,MIC,[6]; SP-BIM 9 checkerboard,250 µg/mL
same,MIC,[6]; SP-BIM 13 checkerboard,250 µg/mL
same,FIC of SP-BIM 9,[6]; [12],1
same,FIC of SP-BIM 13,[6]; [13],0.3
same,Interpretation,[6]; antibiotic + SP-BIM 9,Synergy (Synergy: FICI≤0.5)
same,Σ FIC,[6]; antibiotic + SP-BIM 9,<1.0
same,Interpretation,[6]; antibiotic + SP-BIM 13,Indifferent (Indifferent: FICI>1.0-4.0)
same,Σ FIC,[6]; antibiotic + SP-BIM 13,<1.3
same,"MIC in combination, Antibiotic",[6]; [14],2 µg/mL
same,"MIC in combination, Antibiotic",[6]; [15],250 µg/mL
same,FIC of antibiotic,[6]; in combination with SP-BIM 9,0.008
same,FIC of antibiotic,[6]; in combination with SP-BIM 13,1.0
same,Zone of clearance,[7]; MRSA strain 1594,13.0 mm
same,Interpretive standard (resistant/susceptible),[7]; MRSA strain 1594,R
same,Interpretive standard (resistant/susceptible),[7]; MRSA strain 1621,R
same,Zone of clearance,[7]; MRSA strain 5455,14.5 mm
same,Interpretive standard (resistant/susceptible),[7]; MRSA strain 5455,R
same,Zone of clearance,[7]; MRSA strain 5872,9.0 mm
same,Interpretive standard (resistant/susceptible),[7]; MRSA strain 5872,R
same,Zone of clearance,[7]; MRSA strain 7153,13.5 mm
same,Interpretive standard (resistant/susceptible),[7]; MRSA strain 7153,R
same,Zone of clearance,[7]; MRSA strain 7172,14.5 mm
same,Interpretive standard (resistant/susceptible),[7]; MRSA strain 7172,R
same,Zone of clearance,[7]; MRSA strain 7698,10.5 mm
same,Interpretive standard (resistant/susceptible),[7]; MRSA strain 7698,R
same,Zone of clearance,[7]; MRSA strain 10132,14.0 mm
same,Interpretive standard (resistant/susceptible),[7]; MRSA strain 10132,R
same,Zone of clearance,[8]; E. faecium strain 15134,37 mm
same,Interpretive standard (resistant/susceptible),[8]; E. faecium strain 15134,S
same,Zone of clearance,[8]; E. faecium strain 21024,32 mm
same,Interpretive standard (resistant/susceptible),[8]; E. faecium strain 21024,S
same,Zone of clearance,[8]; E. faecium strain 21955,32 mm
same,Interpretive standard (resistant/susceptible),[8]; E. faecium strain 21955,S
same,Zone of clearance,[8]; E. faecium strain 22003,37 mm
same,Interpretive standard (resistant/susceptible),[8]; E. faecium strain 22003,S
same,Zone of clearance,[8]; E. faecium strain 22870,10 mm
same,Interpretive standard (resistant/susceptible),[8]; E. faecium strain 22870,R
same,Zone of clearance,[8]; E. faecium strain 23227,26 mm
same,Interpretive standard (resistant/susceptible),[8]; E. faecium strain 23227,S
same,Zone of clearance,[8]; E. faecium strain 23230,36 mm
same,Interpretive standard (resistant/susceptible),[8]; E. faecium strain 23230,S
same,Zone of clearance,[8]; E. faecium strain 23668,39 mm
same,Interpretive standard (resistant/susceptible),[8]; E. faecium strain 23668,S
same,Zone of clearance,[8]; E. faecium strain 24169,33 mm
same,Interpretive standard (resistant/susceptible),[8]; E. faecium strain 24169,S
same,Zone of clearance,[8]; E. faecium strain RC63,12 mm
same,Interpretive standard (resistant/susceptible),[8]; E. faecium strain RC63,R
same,FIC compound,[9]; E. faecium strain 22870,0.128
same,Interpretation,[9]; E. faecium strain 22870,Synergy (Synergy: FICI≤0.5)
same,Σ FIC,[9]; E. faecium strain 22870,<0.14
same,MIC of antibiotic only,[9]; E. faecium strain 22870,250 µg/mL
same,FIC antibiotic,[9]; E. faecium strain 22870,0.008
same,MIC of antibiotic in combination,[9]; E. faecium strain 22870,2 µg/mL
same,FIC compound,[9]; E. faecium strain RC63,0252
same,Interpretation,[9]; E. faecium strain RC63,Synergy (Synergy: FICI≤0.5)
same,Σ FIC,[9]; E. faecium strain RC63,<0.26
same,MIC of antibiotic only,[9]; E. faecium strain RC63,250 µg/mL
same,FIC antibiotic,[9]; E. faecium strain RC63,0.008
same,MIC of antibiotic in combination,[9]; E. faecium strain RC63,2 µg/mL
same,MIC,"[10]; read-out: MIC antibiotic only, Escherichia coli, antibiotic alone",> 250 µg/mL
same,MIC,"[10]; read-out: MIC antibiotic only, Escherichia coli, antibiotic alone, SP-BIM 9 checkerboard",250 µg/mL
same,MIC in combination: Antibiotic,[10]; [18],4
same,FIC of SP-BIM 9,[10]; [12],0.064
same,FIC of SP-BIM 13,[10]; [13],0.5
same,Interpretation,[10]; antibiotic + SP-BIM 9,Synergy (Synergy: FICI≤0.5)
same,Σ FIC,[10]; antibiotic + SP-BIM 9,<0.1
same,Interpretation,[10]; antibiotic + SP-BIM 13,Synergy (Synergy: FICI≤0.5)
same,Σ FIC,[10]; antibiotic + SP-BIM 13,<0.5
same,"MIC in combination, Antibiotic",[10]; [14],4 µg/mL
same,FIC of antibiotic,[10]; combination with SP-BIM 13,0.0
same,FIC of antibiotic,[10]; in combination with SP-BIM 9,0.016
same,MIC,"[11]; 24 h, read-out: MIC antibiotic only",> 250 µg/mL
same,MIC in combination: Antibiotic,[11]; [18],0.5
same,FIC of SP-BIM 13,[11]; [13],0.5
same,Interpretation,[11]; antibiotic + SP-BIM 13,Synergy (Synergy: FICI≤0.5)
same,Σ FIC,[11]; antibiotic + SP-BIM 13,<0.5
same,FIC of antibiotic,[11]; combination with SP-BIM 13,0.0
